Test results taken from patent publication US11236129B2, “IL-17A binding peptides and medical uses thereof” (Dompe' Farmaceutici S.P.A., priority 2018, dated 2022).
Residues, ends and D or L forms follow the SMILES beside them.

Target: IL-17RA/IL17RC dimerization induced by IL-17A (Homo sapiens, UniProt Q16552)
Assay: IL-17RA/IL17RC dimerization assay in response to IL-17A (PathHunter Cytokine Receptor Assay)
Type: cell-based
Conditions: IL-17A at EC80; read-out: IC50 in IL-17RA/IL7RC dimerization assay
In short: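 Receptor dimerization was read as chemiluminescence from complemented β-galactosidase after IL-17A at EC80 concentration for 6–16 h at 37 °C. Peptides were added 60 min before agonist, at 37 °C or room temperature, with 1% vehicle. Percent inhibition used the EC80-stimulated and vehicle wells as references.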

IL-17RA/IL17RC dimerization induced by IL-17A, sequence (Q16552 24-155): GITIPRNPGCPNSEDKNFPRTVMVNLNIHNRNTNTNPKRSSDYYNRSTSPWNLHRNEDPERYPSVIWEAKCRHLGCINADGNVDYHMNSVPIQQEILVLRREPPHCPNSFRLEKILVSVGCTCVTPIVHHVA

IC50 | SMILES
< 10 µM | CC[C@H](C)[C@H](NC(C)=O)C(=O)N[C@@H](Cc1c[nH]cn1)C(=O)N[C@H](C(=O)N[C@H](C(=O)N[C@H](C(=O)N1CCC[C@H]1C(=O)N[C@@H](C)C(=O)N[C@@H](CC(=O)O)C(=O)N[C@@H](CC(C)C)C(=O)N[C@@H](Cc1c[nH]c2ccccc12)C(=O)N[C@@H](CC(N)=O)C(=O)N[C@@H](Cc1c[nH]c2ccccc12)C(=O)N[C@H](C(=O)N[C@@H](CC(N)=O)C(=O)N[C@@H](CCCCN)C(N)=O)[C@@H](C)CC)[C@@H](C)CC)[C@@H](C)O)C(C)C [SEQ ID NO: 208] (Ac-IHVTIPADLWNWINK-NH2)
< 10 µM | CC[C@H](C)[C@H](NC(=O)[C@H](Cc1c[nH]c2ccccc12)NC(=O)[C@H](CC(=O)O)NC(=O)[C@H](Cc1c[nH]c2ccccc12)NC(=O)[C@H](CC(C)C)NC(=O)[C@H](CC(=O)O)NC(=O)[C@H](C)NC(=O)[C@@H]1CCCN1C(=O)[C@@H](NC(=O)[C@H](Cc1ccc(O)cc1)NC(=O)CNC(=O)[C@H](CCCNC(=N)N)NC(=O)[C@@H](NC(C)=O)C(C)C)C(C)C)C(=O)N[C@@H](CC(N)=O)C(=O)N[C@@H](CCCCN)C(N)=O [SEQ ID NO: 242] (Ac-VRGYVPADLWDWINK-NH2)
< 10 µM | CC[C@H](C)[C@H](NC(C)=O)C(=O)N[C@@H](Cc1c[nH]cn1)C(=O)N[C@H](C(=O)N[C@H](C(=O)N[C@H](C(=O)N1CCC[C@H]1C(=O)N[C@@H](C)C(=O)N[C@@H](CC(=O)O)C(=O)N[C@@H](CC(C)C)C(=O)N[C@@H](Cc1c[nH]c2ccccc12)C(=O)N[C@@H](CC(=O)O)C(=O)N[C@@H](Cc1ccccc1)C(=O)N[C@H](C(=O)N[C@@H](CC(N)=O)C(=O)N[C@@H](CCCCN)C(N)=O)[C@@H](C)CC)[C@@H](C)CC)[C@@H](C)O)C(C)C [SEQ ID NO: 210] (Ac-IHVTIPADLWDFINK-NH2)
< 10 µM | CC[C@H](C)[C@H](NC(=O)[C@H](Cc1c[nH]c2ccccc12)NC(=O)[C@H](CC(=O)O)NC(=O)[C@H](Cc1c[nH]c2ccccc12)NC(=O)[C@H](CC(C)C)NC(=O)[C@H](CC(=O)O)NC(=O)[C@H](C)NC(=O)[C@@H]1CCCN1C(=O)[C@@H](NC(=O)[C@H](Cc1ccc(O)cc1)NC(=O)[C@@H](NC(=O)[C@H](CCCNC(=N)N)NC(=O)[C@H](CC(C)C)NC(C)=O)[C@@H](C)CC)C(C)C)C(=O)N[C@@H](CC(N)=O)C(=O)N[C@@H](CCCCN)C(N)=O [SEQ ID NO: 241] (Ac-LRIYVPADLWDWINK-NH2)
< 10 µM | CC[C@H](C)[C@H](NC(C)=O)C(=O)N[C@@H](Cc1c[nH]cn1)C(=O)N[C@H](C(=O)N[C@H](C(=O)N[C@H](C(=O)N1CCC[C@H]1C(=O)NCC(=O)N[C@@H](CCC(=O)O)C(=O)N[C@H](C(=O)N[C@@H](Cc1ccccc1)C(=O)N[C@@H](CCC(=O)O)C(=O)N[C@@H](Cc1c[nH]c2ccccc12)C(=O)N[C@@H](CC(C)C)C(=O)N[C@@H](CCC(N)=O)C(=O)N[C@@H](Cc1c[nH]cn1)C(N)=O)[C@@H](C)CC)[C@@H](C)CC)[C@@H](C)O)C(C)C [SEQ ID NO: 250] (Ac-IHVTIPGEIFEWLQH-NH2)

Further lines, the compound ahead of its results:

SMILES | IC50
CC[C@H](C)[C@H](NC(C)=O)C(=O)N[C@@H](Cc1c[nH]cn1)C(=O)N[C@H](C(=O)N[C@H](C(=O)N[C@H](C(=O)N1CCC[C@H]1C(=O)N[C@H](C(=O)N[C@@H](CC(=O)O)C(=O)N[C@@H](CC(C)C)C(=O)N[C@@H](Cc1c[nH]c2ccccc12)C(=O)N[C@@H](CC(=O)O)C(=O)N[C@@H](Cc1c[nH]c2ccccc12)C(=O)N[C@H](C(=O)N[C@@H](CC(N)=O)C(=O)N[C@@H](CCCCN)C(N)=O)[C@@H](C)CC)[C@@H](C)CC)[C@@H](C)CC)[C@@H](C)O)C(C)C [SEQ ID NO: 196] (Ac-IHVTIPIDLWDWINK-NH2) | < 10 µM
CC[C@H](C)[C@H](NC(C)=O)C(=O)N[C@@H](Cc1c[nH]cn1)C(=O)N[C@H](C(=O)N[C@H](C(=O)N[C@@H](Cc1ccc(O)cc1)C(=O)N1CCC[C@H]1C(=O)N[C@@H](C)C(=O)N[C@@H](CC(=O)O)C(=O)N[C@@H](CC(C)C)C(=O)N[C@@H](Cc1c[nH]c2ccccc12)C(=O)N[C@@H](CC(=O)O)C(=O)N[C@@H](Cc1c[nH]c2ccccc12)C(=O)N[C@H](C(=O)N[C@@H](CC(N)=O)C(=O)N[C@@H](CCCCN)C(N)=O)[C@@H](C)CC)[C@@H](C)O)C(C)C [SEQ ID NO: 185] (Ac-IHVTYPADLWDWINK-NH2) | < 10 µM
CC(=O)N[C@H](C(=O)N[C@@H](Cc1c[nH]cn1)C(=O)N[C@@H](Cc1ccccc1)C(=O)N[C@@H](CCC(N)=O)C(=O)N[C@@H](Cc1ccccc1)C(=O)N1CCC[C@H]1C(=O)N[C@@H](CCC(N)=O)C(=O)N[C@@H](CC(=O)O)C(=O)N[C@@H](Cc1c[nH]c2ccccc12)C(=O)N[C@@H](Cc1c[nH]c2ccccc12)C(=O)N[C@@H](CC(N)=O)C(=O)N[C@@H](Cc1c[nH]c2ccccc12)C(=O)N[C@H](C(=O)N[C@@H](CCCNC(=N)N)C(=O)N[C@@H](CCCNC(=N)N)C(N)=O)C(C)C)C(C)C [SEQ ID NO: 139] (Ac-VHFQFPQDWWNWVRR-NH2) | < 0.5 µM
CC[C@H](C)[C@H](NC(C)=O)C(=O)N[C@@H](Cc1c[nH]cn1)C(=O)N[C@H](C(=O)N[C@H](C(=O)N[C@H](C(=O)N1CCC[C@H]1C(=O)N[C@@H](C)C(=O)N[C@@H](Cc1ccc(O)cc1)C(=O)N[C@@H](CC(C)C)C(=O)N[C@@H](Cc1c[nH]c2ccccc12)C(=O)N[C@@H](CC(=O)O)C(=O)N[C@@H](Cc1c[nH]c2ccccc12)C(=O)N[C@H](C(=O)N[C@@H](CC(N)=O)C(=O)N[C@@H](CCCCN)C(N)=O)[C@@H](C)CC)[C@@H](C)CC)[C@@H](C)O)C(C)C [SEQ ID NO: 200] (Ac-IHVTIPAYLWDWINK-NH2) | < 10 µM
CC[C@H](C)[C@H](NC(C)=O)C(=O)N[C@@H](Cc1c[nH]cn1)C(=O)N[C@H](C(=O)N[C@H](C(=O)N[C@H](C(=O)N[C@H](C(=O)N[C@@H](C)C(=O)N[C@@H](CC(=O)O)C(=O)N[C@@H](CC(C)C)C(=O)N[C@@H](Cc1c[nH]c2ccccc12)C(=O)N[C@@H](CC(=O)O)C(=O)N[C@@H](Cc1c[nH]c2ccccc12)C(=O)N[C@H](C(=O)N[C@@H](CC(N)=O)C(=O)N[C@@H](CCCCN)C(N)=O)[C@@H](C)CC)C(C)C)[C@@H](C)CC)[C@@H](C)O)C(C)C [SEQ ID NO: 189] (Ac-IHVTIVADLWDWINK-NH2) | < 10 µM
CC[C@H](C)[C@H](NC(C)=O)C(=O)N[C@@H](Cc1c[nH]cn1)C(=O)N[C@H](C(=O)N[C@H](C(=O)N[C@@H](CC(C)C)C(=O)N1CCC[C@H]1C(=O)N[C@@H](C)C(=O)N[C@@H](CC(=O)O)C(=O)N[C@@H](CC(C)C)C(=O)N[C@@H](Cc1c[nH]c2ccccc12)C(=O)N[C@@H](CC(=O)O)C(=O)N[C@@H](Cc1c[nH]c2ccccc12)C(=O)N[C@H](C(=O)N[C@@H](CC(N)=O)C(=O)N[C@@H](CCCCN)C(N)=O)[C@@H](C)CC)[C@@H](C)O)C(C)C [SEQ ID NO: 181] (Ac-IHVTLPADLWDWINK-NH2) | < 10 µM
CC[C@H](C)[C@H](NC(=O)[C@H](Cc1c[nH]c2ccccc12)NC(=O)[C@H](CC(=O)O)NC(=O)[C@H](Cc1c[nH]c2ccccc12)NC(=O)[C@H](CC(C)C)NC(=O)[C@H](CC(=O)O)NC(=O)[C@H](C)NC(=O)[C@@H]1CCCN1C(=O)[C@@H](NC(=O)[C@@H](NC(=O)[C@@H](NC(=O)[C@H](Cc1c[nH]cn1)NC(=O)[C@@H]1CCCN1C(C)=O)C(C)C)[C@@H](C)O)[C@@H](C)CC)C(=O)N[C@@H](CC(N)=O)C(=O)N[C@@H](CCCCN)C(N)=O [SEQ ID NO: 161] (Ac-PHVTIPADLWDWINK-NH2) | < 10 µM
